Experimental findings from patent US8552002B2 (Novartis AG, priority 2004, dated 2013) are described below.

Each structure is given as a SMILES string. Where a name gives a salt, the structure may show the parent alone.

Type in all cases: biochemical
For one assay, the target named is T1, Tek (Homo sapiens, UniProt Q02763).
T1 construct: amino acids 773-1124 of the cytoplasmic kinase domain of human Tek, N-terminally fused to GST; made in house; host or cells: Sf9 insect cells (baculovirus)
Nature of the assay: Recombinant GST-Tek (Tie-2) tyrosine kinase assay (33P into poly(Glu,Tyr)). To be noted: Examples 1 to 169. Summed up: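 Read-out is filter-bound 33P in poly(Glu,Tyr) 4:1 (10 μg/mL) after 30 min at ambient temperature with 4.0 μM ATP. Enzyme: 150 ng human GST-Tek (aa 773-1124) from insect cells, in Tris pH 7.5 with Mn2+/Mg2+ and vanadate. IC50 fitted linearly over four concentrations, usually 0.01-10 μM.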

The target of the next assay is T2, FGFR3 (K650E) (Homo sapiens, UniProt P22607, K650E).
T2 construct: amino acids 411-806 of the cytoplasmic domain of human FGFR-3, N-terminally fused to GST; made in house; host or cells: Sf9 insect cells (baculovirus)
T2 sequence (P22607 411-806 K650E): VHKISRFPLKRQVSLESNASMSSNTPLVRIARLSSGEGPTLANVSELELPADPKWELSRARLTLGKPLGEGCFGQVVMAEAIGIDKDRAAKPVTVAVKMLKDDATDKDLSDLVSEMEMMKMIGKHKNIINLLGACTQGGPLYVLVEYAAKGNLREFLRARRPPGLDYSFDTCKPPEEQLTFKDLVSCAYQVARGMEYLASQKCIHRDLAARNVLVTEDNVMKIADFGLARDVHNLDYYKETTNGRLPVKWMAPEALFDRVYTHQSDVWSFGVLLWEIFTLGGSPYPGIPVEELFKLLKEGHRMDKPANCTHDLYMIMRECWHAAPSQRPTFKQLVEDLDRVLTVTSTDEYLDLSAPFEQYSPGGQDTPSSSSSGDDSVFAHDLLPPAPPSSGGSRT
Nature of the assay: Recombinant GST-FGFR-3-K650E tyrosine kinase assay (33P into poly(Glu,Tyr)). To be noted: 10 μM; Examples 1 to 169; read-out: FGFR3 (K650E) inhibition at 10 μM.

The target of a further assay is T3, KDR (Homo sapiens, UniProt P35968).
T3 construct: expressed in transfected cells; host or cells: CHO cells
T3 sequence (P35968 20-1356): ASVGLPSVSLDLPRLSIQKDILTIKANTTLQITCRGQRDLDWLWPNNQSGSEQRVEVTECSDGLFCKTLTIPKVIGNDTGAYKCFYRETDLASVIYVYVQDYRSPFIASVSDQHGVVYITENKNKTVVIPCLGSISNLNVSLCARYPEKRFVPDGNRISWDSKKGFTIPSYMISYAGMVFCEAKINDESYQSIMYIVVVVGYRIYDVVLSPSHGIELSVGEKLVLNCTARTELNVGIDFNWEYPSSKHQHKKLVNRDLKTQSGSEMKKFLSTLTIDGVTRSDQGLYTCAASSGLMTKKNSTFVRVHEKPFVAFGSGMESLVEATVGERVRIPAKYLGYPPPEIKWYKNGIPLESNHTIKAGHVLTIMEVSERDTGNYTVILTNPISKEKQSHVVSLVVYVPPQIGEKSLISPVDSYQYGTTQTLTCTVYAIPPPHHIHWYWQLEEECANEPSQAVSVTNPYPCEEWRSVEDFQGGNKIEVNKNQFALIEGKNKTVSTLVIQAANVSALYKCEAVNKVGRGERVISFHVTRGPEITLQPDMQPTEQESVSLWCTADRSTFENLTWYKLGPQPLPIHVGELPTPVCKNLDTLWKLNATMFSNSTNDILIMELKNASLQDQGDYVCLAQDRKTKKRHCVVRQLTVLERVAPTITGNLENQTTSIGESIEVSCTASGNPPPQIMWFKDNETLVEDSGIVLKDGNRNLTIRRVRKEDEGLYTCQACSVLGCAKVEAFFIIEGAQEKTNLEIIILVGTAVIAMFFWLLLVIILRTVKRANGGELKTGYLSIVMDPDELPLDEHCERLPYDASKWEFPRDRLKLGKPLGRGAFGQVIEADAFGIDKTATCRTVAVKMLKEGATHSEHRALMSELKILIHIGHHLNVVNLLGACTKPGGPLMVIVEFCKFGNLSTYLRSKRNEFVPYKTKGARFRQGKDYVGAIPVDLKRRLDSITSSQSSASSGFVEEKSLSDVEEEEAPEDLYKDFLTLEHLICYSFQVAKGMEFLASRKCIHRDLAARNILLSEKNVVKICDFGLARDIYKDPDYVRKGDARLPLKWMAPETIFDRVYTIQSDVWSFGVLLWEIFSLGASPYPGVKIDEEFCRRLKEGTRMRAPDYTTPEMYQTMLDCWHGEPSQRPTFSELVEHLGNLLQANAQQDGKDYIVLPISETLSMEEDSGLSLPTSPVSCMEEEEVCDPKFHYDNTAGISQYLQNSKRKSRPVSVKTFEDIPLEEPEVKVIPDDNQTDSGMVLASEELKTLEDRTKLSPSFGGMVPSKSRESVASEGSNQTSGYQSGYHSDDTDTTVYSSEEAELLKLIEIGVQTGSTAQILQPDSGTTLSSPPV
The assay can be described thus: Inhibitory activity against KDR (VEGF-R2), in vitro data of Examples 170 and 207. To be noted: 10 μM; Examples 1 to 169; read-out: KDR inhibition at 10 μM. In a few lines: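 KDR tyrosine phosphorylation detected by luminescence after overnight 4° C capture of 20 μg lysate protein with PY20:AP antibody. Lysates came from cells given compound for 2 h at 37° C, then final 20 ng/ml VEGF for 5 min; compound-free medium as control.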

T1 sequence (Q02763 773-1124): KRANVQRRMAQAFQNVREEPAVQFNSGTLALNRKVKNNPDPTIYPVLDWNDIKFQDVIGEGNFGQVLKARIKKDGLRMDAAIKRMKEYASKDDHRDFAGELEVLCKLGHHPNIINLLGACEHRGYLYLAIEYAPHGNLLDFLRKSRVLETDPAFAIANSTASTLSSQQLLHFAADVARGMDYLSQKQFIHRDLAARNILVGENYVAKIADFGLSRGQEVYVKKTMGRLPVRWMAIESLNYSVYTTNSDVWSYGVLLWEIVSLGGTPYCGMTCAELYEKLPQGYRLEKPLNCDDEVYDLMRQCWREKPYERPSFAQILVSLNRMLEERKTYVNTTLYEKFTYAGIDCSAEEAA

Regarding `O=C(Nc1cc(Nc2ccc(OCCCN3CCOCC3)cc2)ncn1)Nc1ccccc1Br` [Example 99, 1-(2-Bromo-phenyl)-3-{6-[4-(3-morpholin-4-yl-propoxy)-phenylamino]-pyrimidin-4-yl}-urea], the inhibition (usually the drop in the measured response relative to a control, in per cent) at 10 µM on Tek was 12 to 100%; on FGFR3 (K650E), 27 to 100%; on KDR it was 67 to 100%.
For `CN(C(=O)Nc1c(Cl)cccc1Cl)c1cc(Nc2ccc(F)cc2F)ncn1` [Example 118, 3-(2,6-Dichloro-phenyl)-1-[6-(2,4-difluoro-phenylamino)-pyrimidin-4-yl]-1-methyl-urea], the inhibition at 10 µM at Tek lay within 12 to 100%; on FGFR3 (K650E), 27 to 100%; on KDR, 67 to 100%.
With `CN(C(=O)Nc1c(Cl)cccc1Cl)c1cc(Nc2ccc(N3CCOCC3)cc2)ncn1` [Example 117, 3-(2,6-Dichloro-phenyl)-1-methyl-1-[6-(4-morpholin-4-yl-phenylamino)-pyrimidin-4-yl]-urea], the inhibition at 10 µM on Tek lay within 12 to 100%; on FGFR3 (K650E), 27 to 100%; at KDR, 67 to 100%.
Take `COc1ccc(Cl)c(NC(=O)N(C)c2cc(Nc3ccc(C(=O)N4CCN(C)CC4)cc3)ncn2)c1Cl` [Example 61, 3-(2,6-Dichloro-3-methoxy-phenyl)-1-methyl-1-{6-[4-(4-methyl-piperazine-1-carbonyl)-phenylamino]-pyrimidin-4-yl}-urea]: the inhibition at 10 µM lay within 12 to 100% at Tek, 27 to 100% at FGFR3 (K650E) and 67 to 100% on KDR.
The matching figures for `COc1cc(NC(=O)Nc2cc(Nc3ccc(OCCN4CCOCC4)cc3)ncn2)c(Cl)c(OC)c1` [Example 44, 1-(2-Chloro-3,5-dimethoxy-phenyl)-3-{6-[4-(2-morpholin-4-yl-ethoxy)-phenylamino]-pyrimidin-4-yl}-urea]: 12 to 100%, 27 to 100% and 67 to 100%.
Regarding `COc1cc(C)c(NC(=O)Nc2cc(Nc3cccc(N4CCN(C)CC4)c3)ncn2)cc1OC` [Example 35], the inhibition at 10 µM on Tek is 12 to 100%; on FGFR3 (K650E) it was 27 to 100%; on KDR, 67 to 100%.
Regarding `Cc1cccc(C)c1NC(=O)N(C)c1cc(Nc2cccc(Cl)c2)ncn1` [Example 127, 1-[6-(3-Chloro-phenylamino)-pyrimidin-4-yl]-3-(2,6-dimethyl-phenyl)-1-methyl-urea], the inhibition at 10 µM at Tek is 12 to 100%; on FGFR3 (K650E), 27 to 100%; at KDR, 67 to 100%.
For the molecule `O=C(Nc1cc(Nc2ccc(OCCCN3CCOCC3)cc2)ncn1)Nc1ccccc1Cl` [Example 125, 1-(2-Chloro-Phenyl)-3-{6-[4-(3-morpholin-4-yl-propoxy)-phenylamino]-pyrimidin-4-yl}-urea bis-hydrochloride Salt], the inhibition at 10 µM on Tek is 12 to 100%; on FGFR3 (K650E), 27 to 100%; on KDR it was 67 to 100%.
The matching figures for `COc1cc(NC(=O)Nc2cc(Nc3cccc(Cl)c3)ncn2)cc(OC)c1` [Example 139, 1-[6-(3-Chloro-phenylamino)-pyrimidin-4-yl]-3-(3,5-dimethoxy-phenyl)-urea]: 12 to 100%, 27 to 100% and 67 to 100%.
In the case of `COc1cc(NC(=O)N(C)c2cc(Nc3cccc(N4CCN(C)CC4)c3)ncn2)c(Cl)c(OC)c1` [Example 51, 3-(2-Chloro-3,5-dimethoxy-phenyl)-1-methyl-1-{6-[3-(4-methyl-piperazin-1-yl)-phenylamino]-pyrimidin-4-yl}-urea], the figures for the inhibition at 10 µM at Tek, at FGFR3 (K650E) and on KDR were 12 to 100%, 27 to 100% and 67 to 100%, respectively.
`CCN(C(=O)Nc1c(Cl)c(OC)cc(OC)c1Cl)c1cc(Nc2cccc(CN(C)C)c2)ncn1` [Example 151, 3-(2,6-Dichloro-3,5-dimethoxy-phenyl)-1-[6-(3-dimethylaminomethyl-phenylamino)-pyrimidin-4-yl]-1-ethyl-urea]: the inhibition at 10 µM was in the range of 12 to 100% at Tek, 27 to 100% at FGFR3 (K650E) and 67 to 100% at KDR.
Take `COc1cc(C)c(NC(=O)Nc2cc(Nc3ccc(N4CCN(C)CC4)cc3)ncn2)cc1OC` [Example 34, 1-(4,5-Dimethoxy-2-methyl-phenyl)-3-{6-[4-(4-methyl-piperazin-1-yl)-phenyl-amino]-pyrimidin-4-yl}-urea]: the inhibition at 10 µM at Tek fell in the range of 12 to 100%; on FGFR3 (K650E), 27 to 100%; at KDR, 67 to 100%.
Turning to `CCN1CCN(Cc2ccc(Nc3cc(N(C)C(=O)Nc4c(Cl)c(OC)cc(OC)c4Cl)ncn3)cc2C(F)(F)F)CC1` [Example 169, 3-(2,6-Dichloro-3,5-dimethoxy-phenyl)-1-{6-[4-(4-ethyl-piperazin-1-ylmethyl)-3-trifluoromethyl-phenylamino]-pyrimidin-4-yl}-1-methyl-urea], the inhibition at 10 µM on Tek was in the range of 12 to 100%; at FGFR3 (K650E), 27 to 100%; on KDR it was 67 to 100%.
The corresponding values for `CCN1CCN(c2ccc(Nc3cc(NC(=O)Nc4c(Cl)c(OC)cc(OC)c4Cl)ncn3)cc2)CC1` [Example 160, 1-(2,6-Dichloro-3,5-dimethoxy-phenyl)-3-{6-[4-(4-ethyl-piperazin-1-yl)-phenylamino]-pyrimidin-4-yl}-urea] are 12 to 100%, 27 to 100% and 67 to 100%.
The matching figures for `CN(C(=O)Nc1c(Cl)cccc1Cl)c1cc(Nc2ccc(C(C)(C)O)cc2)ncn1` [Example 111, 3-(2,6-Dichloro-Phenyl)-1-{6-[4-(1-hydroxy-1-methyl-ethyl)-phenylamino]-pyrimidin-4-yl}-1-methyl-urea]: 12 to 100%, 27 to 100% and 67 to 100%.
With `COc1ccc(Cl)c(NC(=O)N(C)c2cc(Nc3cccc(N4CCN(C)CC4)c3)ncn2)c1Cl` [Example 60, 3-(2,6-Dichloro-3-methoxy-phenyl)-1-methyl-1-{6-[3-(4-methyl-piperazin-1-yl)-phenylamino]-pyrimidin-4-yl}-urea], the inhibition at 10 µM at Tek is 12 to 100%; at FGFR3 (K650E), 27 to 100%; at KDR, 67 to 100%.
`O=C(Nc1cc(N[C@H]2CC[C@H](O)CC2)ncn1)Nc1c(Cl)cccc1Cl` [Example 92, 1-(2,6-Dichloro-phenyl)-3-[6-((trans)-4-hydroxy-cyclohexylamino)-pyrimidin-4-yl]-urea]: the inhibition at 10 µM on Tek was in the range of 12 to 100%; at FGFR3 (K650E), 27 to 100%; at KDR, 67 to 100%.
Turning to `CN(C(=O)Nc1c(Cl)cccc1Cl)c1cc(Nc2cccc(Cl)c2)ncn1` [Example 124, 1-[6-(3-Chloro-phenylamino)-pyrimidin-4-yl]-3-(2,6-dichloro-phenyl)-1-methyl-urea], the values for the inhibition at 10 µM at Tek, on FGFR3 (K650E) and at KDR were 12 to 100%, 27 to 100% and 67 to 100%, respectively.
As for `CCN(CC)CCOc1ccc(Nc2cc(NC(=O)Nc3c(Cl)cccc3Cl)ncn2)cc1` [Example 100, 1-(2,6-Dichloro-Phenyl)-3-{6-[4-(2-diethylamino-ethoxy)-phenylamino]-pyrimidin-4-yl}-urea], the figures for the inhibition at 10 µM on Tek, at FGFR3 (K650E) and on KDR were 12 to 100%, 27 to 100% and 67 to 100%, respectively.
